Assay results as given in patent publication US9976141B2, “Compositions and methods for inhibiting gene expression of Hif2alpha” (Arrowhead Madison Inc., priority 2015, dated 2018).
Strand notation (5' to 3'): a small letter for the sugar, then the base; units joined by * are phosphorothioate-linked, units joined directly phosphodiester-linked; [ ] holds rarer units or linkages, { } end groups; capitals alone tell only the bases. {Alk-SMPT-C6} = Alk-SMPT-C6 linker modification (publication code); [invdT] = inverted (3'-3') thymidine; d = 2'-deoxy (DNA); m = 2'-O-methyl; f = 2'-fluoro

System: human (tumor) Hif2α (EPAS1) mRNA
Experiment: Hif2α knockdown in orthotopic RCC tumor bearing mice, single injection of RNAi trigger-delivery polymer conjugate, RT-qPCR (Table 7)
Format: in vivo
Conditions: RNAi trigger 115 μg, polymer 100A 375 μg; single tail vein injection; relative to isotonic glucose
How it was run: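 Female athymic nude mice carried orthotopic A498-SEAP ccRCC kidney tumours, used 5–6 weeks after implantation. They received one tail-vein injection of RGD-targeted Hif2α RNAi trigger–polymer conjugate or isotonic glucose. Tumour Hif2α mRNA was measured by TaqMan RT-qPCR normalised to CycA (ΔΔCT) and expressed relative to glucose-treated mice.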

Substance | Relative Expression day 4 (Hif2α mRNA in kidney tumor)
AD01476 (antisense dTfUmUfCmAfUmGfAmAfAmUfCmGfUmUfAmCfGmUdT*dT; sense ACGUAACGAUUUCAUGAAA; siRNA; sense: sugars from the 5' end fmfmfmfmfmfmfmfmfmf, [invdT] at 3' end, all phosphodiester, 5' {Alk-SMPT-C6}, methylation of C not given here; further chemistry not fully specified) | 0.32
AD01522 (antisense TUUCAUGAAAUCGUUACGUTT; sense ACGUAACGAUUUCAUGAAAT; Hif2alpha RNAi agent antisense strand; modified_base 2,4,6,8,10,14,16,18 /mod_base = “2′-deoxy-2′-fluoro corresponding nucleoside”; modified_base 3,5,7,9,11,12,13,15,17,19 /mod_base = “2′-O-methyl corresponding nucleoside”; modified_base 21 /mod_base = “5′-phosphorothioate corresponding nucleotide”; Hif2alpha RNAi agent sense strand; modified_base 1,3,5,7,8,9,11,13,15,17,19 /mod_base = “2′-deoxy-2′-fluoro corresponding nucleoside”; modified_base 2,4,6,10,12,14,16,18 /mod_base = “2′-O-methyl corresponding nucleoside”; modified_base 20 /mod_base = “3′-3′-linked nucleotide”; modified_base 1 /mo) | 0.44
AD01523 (antisense TUUCAUGAAAUCGUUACGUTT; sense ACGUAACGAUUUCAUGAAAT; Hif2alpha RNAi agent antisense strand; modified_base 2,4,6,8,10,13,14,16,18 /mod_base = “2′-deoxy-2′-fluoro corresponding nucleoside”; modified_base 3,5,7,9,11,12,15,17,19 /mod_base = “2′-O-methyl corresponding nucleoside”; modified_base 21 /mod_base = “5′-phosphorothioate corresponding nucleotide”; Hif2alpha RNAi agent sense strand; modified_base 1,3,5,8,9,11,13,15,17,19 /mod_base = “2′-deoxy-2′-fluoro corresponding nucleoside”; modified_base 2,4,6,7,10,12,14,16,18 /mod_base = “2′-O-methyl corresponding nucleoside”; modified_base 20 /mod_base = “3′-3′-linked nucleotide”; modified_base 1 /mo) | 0.49
AD01524 (antisense TUUCAUGAAAUCGUUACGUTT; sense ACGUAACGAUUUCAUGAAAT; Hif2alpha RNAi agent antisense strand; modified_base 2,4,6,8,10,12,14,16,18 /mod_base = “2′-deoxy-2′-fluoro corresponding nucleoside”; modified_base 3,5,7,9,11,13,15,17,19 /mod_base = “2′-O-methyl corresponding nucleoside”; modified_base 2,3,21 /mod_base = “5′-phosphorothioate corresponding nucleotide”; Hif2alpha RNAi agent sense strand; modified_base 1,3,5,7,9,11,13,15,17,19 /mod_base = “2′-deoxy-2′-fluoro corresponding nucleoside”; modified_base 2,4,6,8,10,12,14,16,18 /mod_base = “2′-O-methyl corresponding nucleoside”; modified_base 20 /mod_base = “3′-3′-linked nucleotide”; modified_base 1) | 0.26

Same assay, conditions: RNAi trigger 150 μg, polymer 100A 300 μg; single tail vein injection; relative to isotonic glucose

Substance | Relative Expression day 4 (Hif2α mRNA in kidney tumor)
AD01410 (antisense TUUCAUGAAAUCGUUACGUCGGCUAU; sense UAUAUCGACGUAACGAUUUCAUGAAA; Hif2alpha RNAi agent antisense strand; modified_base 25 modified base = “2′-hydroxy corresponding nucleoside”; modified_base 2,4,6,8,10,12,14,16,18,20 /mod_base = “2′-deoxy-2′-fluoro corresponding nucleoside”; modified_base 3,5,7,11,13,15,17,19,21,22,23,24,26 /mod_base = “2′-O-methyl corresponding nucleoside”; modified_base 9 /mod_base = “2′-3′ seco corresponding nucleotide”; modified_base 2,24 /m; Hif2alpha RNAi agent sense strand; modified_base 2,4 modified base = “2′-hydroxy corresponding nucleoside”; modified_base 6,8,10,12,14,16,18,20,22,24,26 /mod_base = “2′-deoxy-2′-fluoro correspondi) | 0.41
AD01411 (antisense TUUCAUGAAAUCGUUACGUCGGCUAU; sense UAUAUCGACGUAACGAUUUCAUGAAA; Hif2alpha RNAi agent antisense strand; modified_base 25 modified base = “2′-hydroxy corresponding nucleoside”; modified_base 2,4,6,8,10,12,14,16,18,20 /mod_base = “2′-deoxy-2′-fluoro corresponding nucleoside”; modified_base 3,5,7,11,13,15,17,19,21,22,23,24,26 /mod_base = “2′-O-methyl corresponding nucleoside”; modified_base 9 /mod_base = “2′-3′ seco corresponding nucleotide”; modified_base 2,24 /m; Hif2alpha RNAi agent sense strand; modified_base 2,4 modified base = “2′-hydroxy corresponding nucleoside”; modified_base 6,8,10,12,14,16,18,20,22,24,26 /mod_base = “2′-deoxy-2′-fluoro correspondi) | 0.36
AD01424 (antisense TUUCAUGAAAUCGUUACGUCGGCUAU; sense UAUAUCGACGUAACGAUUUCAUGAAA; Hif2alpha RNAi agent antisense strand; modified_base 25 modified base = “2′-hydroxy corresponding nucleoside”; modified_base 2,4,6,8,10,12,14,16,18,20 /mod_base = “2′-deoxy-2′-fluoro corresponding nucleoside”; modified_base 3,5,7,11,13,15,17,19,21,22,23,24,26 /mod_base = “2′-O-methyl corresponding nucleoside”; modified_base 9 /mod_base = “2′-3′ seco corresponding nucleotide”; modified_base 2,3,23,; Hif2alpha RNAi agent sense strand; modified_base 2,4 modified base = “2′-hydroxy corresponding nucleoside”; modified_base 6,8,10,12,14,16,18,20,22,24 /mod_base = “2′-deoxy-2′-fluoro corresponding) | 0.54
